Earlier results as cited in patent US20250367122A1, “PHARMACEUTICAL COMPOSITION CONTAINING 1-{2-[(3S,4R)-1-{[(3R,4R)-1-CYCLOPENTYL-3-FLUORO-4-(4-METHOXYPHENYL)PYRROLIDIN-3-YL]CARBONYL}-4-(METHOXYMETHYL)PYRROLIDIN-3-YL]-5-(TRIFLUOROMETHYL)PHENYL}PIPERIDINE-4-CARBOXYLIC ACID OR PHARMACEUTICALLY ACCEPTABLE SALT OR CO-CRYSTAL THEREOF” (MITSUBISHI TANABE PHARMA CORPORATION, priority 2022, published 2025).

Test system: melanocortin receptor (MCR)
Conditions: as described in Patent Document 1

MCR activation effect: excellent
Compound: COC[C@H]1CN(C(=O)[C@]2(F)CN(C3CCCC3)C[C@H]2c2ccc(OC)cc2)C[C@@H]1c1ccc(C(F)(F)F)cc1N1CCC(C(=O)O)CC1 [Compound A, 1-{2-[(3S,4R)-1-{[(3R,4R)-1-cyclopentyl-3-fluoro-4-(4-methoxyphenyl)pyrrolidin-3-yl]carbonyl}-4-(methoxymethyl)pyrrolidin-3-yl]-5-(trifluoromethyl)phenyl}piperidine-4-carboxylic acid]
